From US6355799B1, “Substituted benzene compounds, process for their preparation, and herbicidal and defoliant compositions containing them” (ISK Americas Incorporated, priority 1997, dated 2002)

Assays:
Type in all cases: in vivo
[1] = test system: redroot pigweed (Amaranthus retroflexus, AMARE); experiment: Pre-emerge test, greenhouse herbicide activity screening; details: rating scale 0-100, 14 days after application
Procedure, shortened: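 Sandy loam pots; pre-emerge: sown 1 d pre-spray, surface-watered after, then bottom-watered. Post-emerge: sown 8–21 d before, 2–3 leaf stage, + 0.25% v/v NIS, bottom-watered. Acetone, 187 l/ha track spray, 15–1000 g ai/ha. 0–100 injury score, day 14.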

[2] = test system: barnyardgrass (Echinochloa crus-galli, ECHCG); experiment: as above; details: rating scale 0-100, 14 days after application
Procedure, shortened: (§1)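 Rating: 0–100 visual injury, 14 DAA. Application: acetone, 187 l/ha, 15–1000 g ai/ha, flat-fan track sprayer with nozzle 40–45 cm above soil or canopy. Post-emerge runs used 0.25% v/v surfactant on 2–3 leaf plants.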

[3] = test system: common ragweed (Ambrosia artemisizfolia L., AMBEL); experiment: as above; details: rating scale 0-100, 14 days after application
Procedure, shortened: as §1

[4] = test system: green foxtail (Setaria viridis, SETVI); experiment: as above; details: rating scale 0-100, 14 days after application
Procedure, shortened: as §1

[5] = test system: ivyleaf morningglory (Ipomoea hederacea, IPOHE); experiment: as above; details: rating scale 0-100, 14 days after application
Procedure, shortened: as §1

[6] = test system: johnsongrass (Sorghum halepense, SORHA); experiment: as above; details: rating scale 0-100, 14 days after application
Procedure, shortened: as §1

[7] = test system: lambsquarters (Chenopodium album, CHEAL); experiment: as above; details: rating scale 0-100, 14 days after application
Procedure, shortened: as §1

[8] = test system: large crabgrass (Digitaria sanguinalis, DIGSA); experiment: as above; details: rating scale 0-100, 14 days after application
Procedure, shortened: as §1

[9] = test system: sicklepod (Cassia obtusifolia, CASOB); experiment: as above; details: rating scale 0-100, 14 days after application
Procedure, shortened: as §1

[10] = test system: velvetleaf (Abutilon theophrasti, ABUTH); experiment: as above; details: rating scale 0-100, 14 days after application
Procedure, shortened: as §1

[11] = test system: field corn (Zea mays L., var. Dekalb 535, CORN); experiment: Pre-emerge test, crop safety; details: rating scale 0-100, 14 days after application
Procedure, shortened: (§2)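 Compounds in acetone were track-sprayed at 15-1000 g ai/ha (187 l/ha) on sandy loam pots: pre-emerge one day after seeding, post-emerge at 2-3 leaf stage with 0.25% v/v non-ionic surfactant. Phytotoxicity was rated 14 days later on a 0 (no damage) to 100 (complete death) scale.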

[12] = test system: upland rice (Oryza sp., var. Tebonnet, RICE); experiment: Pre-emerge test, crop safety; details: rating scale 0-100, 14 days after application
Procedure, shortened: as §2

[13] = test system: barnyardgrass (Echinochloa crus-galli, ECHCG); experiment: Post-emerge test, greenhouse herbicide activity screening; details: rating scale 0-100 (0 no damage, 100 complete death), 14 days after application
Procedure, shortened: (§3)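 Fourteen days after spraying, crop and weed injury was graded visually from 0, no effect, to 100, every plant dead. Test substances were dissolved in acetone and applied at 15–1000 g ai/ha with a flat-fan nozzle. Application was either pre-emergence, one day after sowing, or post-emergence at the 2–3 leaf stage.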

[14] = test system: green foxtail (Setaria viridis, SETVI); experiment: as above; details: rating scale 0-100 (0 no damage, 100 complete death), 14 days after application
Procedure, shortened: as §3

[15] = test system: ivyleaf morningglory (Ipomoea hederacea, IPOHE); experiment: as above; details: rating scale 0-100 (0 no damage, 100 complete death), 14 days after application
Procedure, shortened: as §3

[16] = test system: johnsongrass (Sorghum halepense, SORHA); experiment: as above; details: rating scale 0-100 (0 no damage, 100 complete death), 14 days after application
Procedure, shortened: as §3

[17] = test system: lambsquarters (Chenopodium album, CHEAL); experiment: as above; details: rating scale 0-100 (0 no damage, 100 complete death), 14 days after application
Procedure, shortened: as §3

[18] = test system: large crabgrass (Digitaria sanguinalis, DIGSA); experiment: as above; details: rating scale 0-100 (0 no damage, 100 complete death), 14 days after application
Procedure, shortened: as §3

[19] = test system: redroot pigweed (Amaranthus retroflexus, AMARE); experiment: as above; details: rating scale 0-100 (0 no damage, 100 complete death), 14 days after application
Procedure, shortened: as §3

[20] = test system: sicklepod (Cassia obtusifolia, CASOB); experiment: as above; details: rating scale 0-100 (0 no damage, 100 complete death), 14 days after application
Procedure, shortened: as §3

[21] = test system: velvetleaf (Abutilon theophrasti, ABUTH); experiment: as above; details: rating scale 0-100 (0 no damage, 100 complete death), 14 days after application
Procedure, shortened: as §3

[22] = test system: field corn (Zea mays L., var. Dekalb 535, CORN); experiment: Post-emerge test, crop safety; details: rating scale 0-100 (0 no damage, 100 complete death), 14 days after application
Procedure, shortened: (§4)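 Plants grown in 10 cm pots of sandy loam mix received acetone-dissolved compounds through a moving flat-fan nozzle. Doses ranged from 15 to 1000 g ai/ha. Pre-emerge pots were seeded one day earlier, post-emerge pots 8–21 days earlier. Fourteen days on, each pot was graded 0–100 for damage.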

[23] = test system: upland rice (Oryza sp., var. Tebonnet, RICE); experiment: Post-emerge test, crop safety; details: rating scale 0-100 (0 no damage, 100 complete death), 14 days after application
Procedure, shortened: as §4

C=COC(=O)C(C)(Cl)Cc1c(OC)c(Cl)cc(F)c1-n1c(=O)cc(C(F)(F)F)n(C)c1=O (stereo not shown) [14-42]
Pre-emerge herbicidal activity, phytotoxicity rating AMARE ([1]; 63 g ai/ha): 95 | Pre-emerge herbicidal activity, phytotoxicity rating AMARE ([1]; 250 g ai/ha): 100 | Pre-emerge herbicidal activity, phytotoxicity rating ECHCG ([2]; 63 g ai/ha): 0 | Pre-emerge herbicidal activity, phytotoxicity rating ECHCG ([2]; 250 g ai/ha): 20 | Pre-emerge herbicidal activity, phytotoxicity rating AMBEL ([3]; 63 g ai/ha): 0 | Pre-emerge herbicidal activity, phytotoxicity rating AMBEL ([3]; 250 g ai/ha): 100 | Pre-emerge herbicidal activity, phytotoxicity rating SETVI ([4]; 63 g ai/ha): 30 | Pre-emerge herbicidal activity, phytotoxicity rating SETVI ([4]; 250 g ai/ha): 80 | Pre-emerge herbicidal activity, phytotoxicity rating IPOHE ([5]; 63 g ai/ha): 0 | Pre-emerge herbicidal activity, phytotoxicity rating IPOHE ([5]; 250 g ai/ha): 30 | Pre-emerge herbicidal activity, phytotoxicity rating SORHA ([6]; 63 g ai/ha): 0 | Pre-emerge herbicidal activity, phytotoxicity rating SORHA ([6]; 250 g ai/ha): 0 | Pre-emerge herbicidal activity, phytotoxicity rating CHEAL ([7]; 63 g ai/ha): 90 | Pre-emerge herbicidal activity, phytotoxicity rating CHEAL ([7]; 250 g ai/ha): 100 | Pre-emerge herbicidal activity, phytotoxicity rating DIGSA ([8]; 63 g ai/ha): 0 | Pre-emerge herbicidal activity, phytotoxicity rating DIGSA ([8]; 250 g ai/ha): 50 | Pre-emerge herbicidal activity, phytotoxicity rating CASOB ([9]; 63 g ai/ha): 0 | Pre-emerge herbicidal activity, phytotoxicity rating CASOB ([9]; 250 g ai/ha): 0 | Pre-emerge herbicidal activity, phytotoxicity rating ABUTH ([10]; 63 g ai/ha): 80 | Pre-emerge herbicidal activity, phytotoxicity rating ABUTH ([10]; 250 g ai/ha): 95 | Pre-emerge phytotoxicity rating, crop damage CORN ([11]; 63 g ai/ha): 0 | Pre-emerge phytotoxicity rating, crop damage CORN ([11]; 250 g ai/ha): 20 | Pre-emerge phytotoxicity rating, crop damage RICE ([12]; 63 g ai/ha): 10 | Pre-emerge phytotoxicity rating, crop damage RICE ([12]; 250 g ai/ha): 30 | Post-emerge Herbicidal Activity, phytotoxicity rating ECHCG ([13]; Rate 63 g ai/ha): 100 | Post-emerge Herbicidal Activity, phytotoxicity rating ECHCG ([13]; Rate 250 g ai/ha): 100 | Post-emerge Herbicidal Activity, phytotoxicity rating SETVI ([14]; Rate 63 g ai/ha): 100 | Post-emerge Herbicidal Activity, phytotoxicity rating SETVI ([14]; Rate 250 g ai/ha): 100 | Post-emerge Herbicidal Activity, phytotoxicity rating IPOHE ([15]; Rate 63 g ai/ha): 100 | Post-emerge Herbicidal Activity, phytotoxicity rating IPOHE ([15]; Rate 250 g ai/ha): 100 | Post-emerge Herbicidal Activity, phytotoxicity rating SORHA ([16]; Rate 63 g ai/ha): 60 | Post-emerge Herbicidal Activity, phytotoxicity rating SORHA ([16]; Rate 250 g ai/ha): 95 | Post-emerge Herbicidal Activity, phytotoxicity rating CHEAL ([17]; Rate 63 g ai/ha): 100 | Post-emerge Herbicidal Activity, phytotoxicity rating CHEAL ([17]; Rate 250 g ai/ha): 100 | Post-emerge Herbicidal Activity, phytotoxicity rating DIGSA ([18]; Rate 63 g ai/ha): 95 | Post-emerge Herbicidal Activity, phytotoxicity rating DIGSA ([18]; Rate 250 g ai/ha): 100 | Post-emerge Herbicidal Activity, phytotoxicity rating AMARE ([19]; Rate 63 g ai/ha): 100 | Post-emerge Herbicidal Activity, phytotoxicity rating AMARE ([19]; Rate 250 g ai/ha): 100 | Post-emerge Herbicidal Activity, phytotoxicity rating CASOB ([20]; Rate 63 g ai/ha): 60 | Post-emerge Herbicidal Activity, phytotoxicity rating CASOB ([20]; Rate 250 g ai/ha): 90 | Post-emerge Herbicidal Activity, phytotoxicity rating ABUTH ([21]; Rate 63 g ai/ha): 100 | Post-emerge Herbicidal Activity, phytotoxicity rating ABUTH ([21]; Rate 250 g ai/ha): 100 | Post-emerge phytotoxicity rating CORN (crop damage) ([22]; Rate 63 g ai/ha): 100 | Post-emerge phytotoxicity rating CORN (crop damage) ([22]; Rate 250 g ai/ha): 100 | Post-emerge phytotoxicity rating RICE (crop damage) ([23]; Rate 63 g ai/ha): 95 | Post-emerge phytotoxicity rating RICE (crop damage) ([23]; Rate 250 g ai/ha): 100
